# According to US4200575A, “7[(2-Thiazolyl)-2-(oxoimino)acetamido]cephalosporin derivatives” (Takeda Chemical Industries, Ltd., priority 1977, dated 1980):
# What was measured:
# Experiment in all cases: Minimal inhibitory concentration (M.I.C.), agar dilution method
# Details in all cases: TSA, inoculum 10^7 /ml
# C. freundii GN 99 = assay type: cell-based, Citrobacter freundii
# Excerpt: (§1) (a) Determination of minimal inhibitory concentrations (Tables 1 to 8):
# (§2) Procedure: agar dilution method
# C. freundii GN 1706 = assay type: cell-based, Citrobacter freundii
# Excerpt: as §1, §2
# E. coli NIHJ JC-2 = assay type: cell-based, Escherichia coli
# Excerpt: as §1, §2
# E. coli T-7 = assay type: cell-based, Escherichia coli
# Excerpt: as §1, §2
# E. coli 0-111 = assay type: cell-based, Escherichia coli
# Excerpt: The minimal inhibitory concentrations (M.I.C.) of some representative cephalosporin derivatives of this invention as produced by the procedures described in those examples and the minimal inhibitory concentrations of cephalothin [sodium 7-(2-thienylacetamido)-3-acetoxymethyl-3-cephem-4-carboxylate], cephaloridine [7-(2-thienylacetamido)-3-(1-pyridyl)methyl-3-cephem-4-carboxylic acid betaine] and cefazolin [sodium 7-(1H-tetrazol-1-yl)acetamido-3-(2-methyl-1,3,4-thiadiazol-5-yl)thiomethyl-3-cephem-4-carboxylate], which are among the clinically established and commercially available cephalosporins (as described, for example, in the New England Journal of Medicine 294, 24, 1976 and Journal of Pharmaceutical Science 64, 1899, 1975), both against various bacteria, as well as the therapeutic effects of some respresentative cephalosporin derivatives of this invention and of cephaloridine in infected mice, are shown in tables.
# as §1, §2
# P. mirabilis GN 4359 = assay type: cell-based, Proteus mirabilis
# Excerpt: as §1, §2
# P. rettgeri GN4733 = assay type: cell-based, Proteus rettgeri
# Excerpt: as §1, §2
# P. rettgeri TN 338 = assay type: cell-based, Proteus rettgeri
# Excerpt: as §1, §2
# P. vulgaris GN 4413 = assay type: cell-based, Proteus vulgaris
# Excerpt: as §1, §2
# P. vulgaris IFO 3988 = assay type: cell-based, Proteus vulgaris
# Excerpt: as §1, §2
# S. aureus 209P = assay type: cell-based, Staphylococcus aureus
# Excerpt: as §1, §2
# S. aureus 1840 = assay type: cell-based, Staphylococcus aureus
# Excerpt: as §1, §2
# S. marcescens TN 24 = assay type: cell-based, Serratia marcescens
# Excerpt: as §1, §2
# S. marcescens IFO 12648 = assay type: cell-based, Serratia marcescens
# Excerpt: as §1, §2
# K. pneumoniae GN 3835 = assay type: cell-based, Klebsiella pneumoniae
# Excerpt: as §1, §2
# K. pneumoniae DT = assay type: cell-based, Klebsiella pneumoniae
# Excerpt: as §1, §2
# P. morganii IFO 3168 = assay type: cell-based, Proteus morganii
# Excerpt: as §1, §2
# E. cloacae TN 1282 = assay type: cell-based, Enterobacter cloacae
# Excerpt: as §1, §2
Structure (SMILES),minimal inhibitory concentration (M.I.C.) (C. freundii GN 99),minimal inhibitory concentration (M.I.C.) (C. freundii GN 1706),minimal inhibitory concentration (M.I.C.) (E. coli NIHJ JC-2),minimal inhibitory concentration (M.I.C.) (E. coli T-7),minimal inhibitory concentration (M.I.C.) (E. coli 0-111),minimal inhibitory concentration (M.I.C.) (P. mirabilis GN 4359),minimal inhibitory concentration (M.I.C.) (P. rettgeri GN4733),minimal inhibitory concentration (M.I.C.) (P. rettgeri TN 338),minimal inhibitory concentration (M.I.C.) (P. vulgaris GN 4413),minimal inhibitory concentration (M.I.C.) (P. vulgaris IFO 3988),minimal inhibitory concentration (M.I.C.) (S. aureus 209P),minimal inhibitory concentration (M.I.C.) (S. aureus 1840),minimal inhibitory concentration (M.I.C.) (S. marcescens TN 24),minimal inhibitory concentration (M.I.C.) (S. marcescens IFO 12648),minimal inhibitory concentration (M.I.C.) (K. pneumoniae GN 3835),minimal inhibitory concentration (M.I.C.) (K. pneumoniae DT),minimal inhibitory concentration (M.I.C.) (P. morganii IFO 3168),minimal inhibitory concentration (M.I.C.) (E. cloacae TN 1282)
"CNC(=O)O/N=C(\C(=O)NC1C(=O)N2C(C(=O)O)=C(COC(C)=O)CSC12)c1csc(=N)[nH]1 (stereo not drawn) [Example II - 1, sodium 7-[2-(2-imino-4-thiazolin-4-yl)-2-methylcarbamoyloximinoacetamido]-3-acetoxymethyl-3-cephem-4-carboxylate (syn-isomer)]",0.1,0.39,0.1,0.39,≤ 0.012,0.1,0.05,≤ 0.012,12.5,0.05,1.56,3.13,6.25,3.13,0.1,0.05,0.39,1.56
"CNC(=O)O/N=C(\C(=O)NC1C(=O)N2C(C(=O)O)=C(CSc3nnnn3CCN(C)C)CSC12)c1csc(=N)[nH]1 (stereo not drawn) [Example IV - 3, 7-[2-(2-imino-4-thiazolin-4-yl)-2-methylcarbamoyloximinoacetamido]-3-[1-(2-dimethylammonium)ethyl-1H-tetrazol-5-yl]thiomethyl-3-cephem-4-carboxylate (syn-isomer)]",≤ 0.2,0.78,0.39,3.13,≤ 0.2,0.39,0.39,≤ 0.2,100,0.39,1.56,3.13,6.25,6.25,0.39,≤ 0.2,0.39,1.56
"Cc1nnc(SCC2=C(C(=O)[O-])N3C(=O)C(NC(=O)Cn4cnnn4)[C@H]3SC2)s1.[Na+] (some centres unmarked) [Cefazolin, sodium 7-(1H-tetrazol-1-yl)acetamido-3-(2-methyl-1,3,4-thiadiazol-5-yl)thiomethyl-3-cephem-4-carboxylate, reference compound]",12.5,> 100,1.56,50,1.56,6.25,100,≤ 0.2,> 100,3.13,0.39,1.56,> 100,> 100,6.25,1.56,100,
CC(=O)OCC1=C(C(=O)O)N2C(=O)C(NC(=O)/C(=N\OC(=O)NC(C)C)c3csc(=N)[nH]3)C2SC1 (centres unmarked) [Example II - 16],0.39,0.78,0.39,3.13,0.024,0.1,0.2,≤ 0.012,25,0.39,1.56,3.13,25,6.25,0.78,0.1,0.78,6.25
CCNC(=O)O/N=C(\C(=O)NC1C(=O)N2C(C(=O)O)=C(CSc3nnc(C)s3)CSC12)c1csc(=N)[nH]1 (centres unmarked) [Example II - 10],0.39,0.78,0.78,3.13,0.2,0.78,0.78,≤ 0.05,12.5,0.39,0.78,1.56,1.56,3.13,0.78,0.2,0.39,3.13
CCCCNC(=O)O/N=C(\C(=O)NC1C(=O)N2C(C(=O)O)=C(C)CSC12)c1csc(=N)[nH]1 (centres unmarked) [Example II - 23],12.5,25,12.5,25,6.25,3.13,0.39,0.1,50,12.5,12.5,12.5,> 100,100,6.25,3.13,100,100
CCNC(=O)O/N=C(\C(=O)NC1C(=O)N2C(C(=O)O)=C(COC(C)=O)CSC12)c1csc(=N)[nH]1 (centres unmarked) [Example II - 7],0.39,0.78,0.39,1.56,0.024,0.1,0.1,≤ 0.012,6.25,0.2,1.56,3.13,6.25,6.25,0.39,0.05,1.56,12.5
"CC(=O)OCC1=C(C(=O)[O-])N2C(=O)C(NC(=O)Cc3cccs3)[C@H]2SC1.[Na+] (some centres unmarked) [Cephalothin, sodium 7-(2-thienylacetamido)-3-acetoxymethyl-3-cephem-4-carboxylate, reference compound]",25,> 100,12.5,100,3.13,3.13,> 100,1.56,> 100,1.56,0.20,0.39,> 100,> 100,12.5,1.56,> 100,> 100
